Test results published in patent publication US20200024278A1, “COMPOSITION COMPRISING ANTIBIOTIC COMPOUND AND AN HETEROCYCLIC COMPOUND AND THEIR USE IN PREVENTING OR TREATING BACTERIAL INFECTIONS” (MUTABILIS, priority 2016, published 2020).

Key:
Experiment in all cases: MIC, broth microdilution (CLSI), substance alone or ATB combined with compound at 4 or 8 μg/mL
Type in all cases: cell-based, A. baumannii
ABA UFR154 = test system: ABA UFR154
How it was run: (§1)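 Growth inhibition endpoint, read visually after 16-20 h at 35° C in ambient air. Cation-adjusted Mueller-Hinton broth, inoculum 5·10^5 CFU/mL, CLSI M7-A7 protocol.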

ABA UFR153 = test system: ABA UFR153
How it was run: as §1

ABA UFR152 = test system: ABA UFR152
How it was run: as §1

ABA UFR157 = test system: ABA UFR157
How it was run: as §1

ABA UFR155 = test system: ABA UFR155
How it was run: as §1

ABA 107292 = test system: ABA 107292
How it was run: as §1

ABA UFR158 = test system: ABA UFR158
How it was run: as §1

ABA UFR161 = test system: ABA UFR161
How it was run: as §1

ABA UFR151 = test system: ABA UFR151
How it was run: as §1

ABA UFR156 = test system: ABA UFR156
How it was run: as §1

ABA UFR160 = test system: ABA UFR160
How it was run: as §1

[1] = Acinetobacter baumannii, antibiotic alone, read-out: MIC ATB alone

## CO/N=C(\C(=O)N[C@@H]1C(=O)N2C(C(=O)[O-])=C(C[N+]3(C)CCCC3)CS[C@H]12)c1csc(N)n1 [FEP, Cefepime]
ABA UFR154; [1]
  MIC: 2 µg/mL
ABA UFR154; with Example 1 @8 μg/ml
  MIC ATB combined with Example 1 @8 μg/ml: 2 µg/mL
ABA UFR154; with Example 3 @8 μg/ml
  MIC ATB combined with Example 3 @8 μg/ml: 1 µg/mL
ABA UFR154; with Example 6 @8 μg/ml
  MIC ATB combined with Example 6 @8 μg/ml: 1 µg/mL
ABA UFR154; with Example 9 @4 μg/ml
  MIC ATB combined with Example 9 @4 μg/ml: 1 µg/mL
ABA UFR154; with Example 10 @8 μg/ml
  MIC ATB combined with Example 10 @8 μg/ml: 0.5 µg/mL
ABA UFR154; with Example 11 @8 μg/ml
  MIC ATB combined with Example 11 @8 μg/ml: 1 µg/mL
ABA UFR154; with Example 12 @8 μg/ml
  MIC ATB combined with Example 12 @8 μg/ml: 1 µg/mL
ABA UFR154; with Example 15 @4 μg/ml
  MIC ATB combined with Example 15 @4 μg/ml: 2 µg/mL
ABA UFR153; [1]
  MIC: > 128 µg/mL
ABA UFR153; with Example 1 @8 μg/ml
  MIC ATB combined with Example 1 @8 μg/ml: 16 µg/mL
ABA UFR153; with Example 3 @8 μg/ml
  MIC ATB combined with Example 3 @8 μg/ml: 8 µg/mL
ABA UFR153; with Example 6 @8 μg/ml
  MIC ATB combined with Example 6 @8 μg/ml: <=0.25 μg/mL
ABA UFR153; with Example 9 @4 μg/ml
  MIC ATB combined with Example 9 @4 μg/ml: 16 µg/mL
ABA UFR153; with Example 10 @8 μg/ml
  MIC ATB combined with Example 10 @8 μg/ml: 8 µg/mL
ABA UFR153; with Example 11 @8 μg/ml
  MIC ATB combined with Example 11 @8 μg/ml: 16 µg/mL
ABA UFR153; with Example 12 @8 μg/ml
  MIC ATB combined with Example 12 @8 μg/ml: 8 µg/mL
ABA UFR153; with Example 15 @4 μg/ml
  MIC ATB combined with Example 15 @4 μg/ml: 16 µg/mL
ABA UFR152; [1]
  MIC: 16 µg/mL
ABA UFR152; with Example 1 @8 μg/ml
  MIC ATB combined with Example 1 @8 μg/ml: 16 µg/mL
ABA UFR152; with Example 3 @8 μg/ml
  MIC ATB combined with Example 3 @8 μg/ml: 8 µg/mL
ABA UFR152; with Example 6 @8 μg/ml
  MIC ATB combined with Example 6 @8 μg/ml: 16 µg/mL
ABA UFR152; with Example 9 @4 μg/ml
  MIC ATB combined with Example 9 @4 μg/ml: 16 µg/mL
ABA UFR152; with Example 10 @8 μg/ml
  MIC ATB combined with Example 10 @8 μg/ml: 8 µg/mL
ABA UFR152; with Example 11 @8 μg/ml
  MIC ATB combined with Example 11 @8 μg/ml: 16 µg/mL
ABA UFR152; with Example 12 @8 μg/ml
  MIC ATB combined with Example 12 @8 μg/ml: 8 µg/mL
ABA UFR152; with Example 15 @4 μg/ml
  MIC ATB combined with Example 15 @4 μg/ml: 16 µg/mL
ABA UFR157; [1]
  MIC: 32 µg/mL
ABA UFR157; with Example 1 @8 μg/ml
  MIC ATB combined with Example 1 @8 μg/ml: 8 µg/mL
ABA UFR157; with Example 3 @8 μg/ml
  MIC ATB combined with Example 3 @8 μg/ml: 4 µg/mL
ABA UFR157; with Example 6 @8 μg/ml
  MIC ATB combined with Example 6 @8 μg/ml: <0.25 µg/mL
ABA UFR157; with Example 9 @4 μg/ml
  MIC ATB combined with Example 9 @4 μg/ml: 8 µg/mL
ABA UFR157; with Example 10 @8 μg/ml
  MIC ATB combined with Example 10 @8 μg/ml: 8 µg/mL
ABA UFR157; with Example 11 @8 μg/ml
  MIC ATB combined with Example 11 @8 μg/ml: 8 µg/mL
ABA UFR157; with Example 12 @8 μg/ml
  MIC ATB combined with Example 12 @8 μg/ml: 4 µg/mL
ABA UFR157; with Example 15 @4 μg/ml
  MIC ATB combined with Example 15 @4 μg/ml: 8 µg/mL
ABA UFR155; [1]
  MIC: 128 µg/mL
ABA UFR155; with Example 1 @8 μg/ml
  MIC ATB combined with Example 1 @8 μg/ml: 64 µg/mL
ABA UFR155; with Example 3 @8 μg/ml
  MIC ATB combined with Example 3 @8 μg/ml: 32 µg/mL
ABA UFR155; with Example 6 @8 μg/ml
  MIC ATB combined with Example 6 @8 μg/ml: 16 µg/mL
ABA UFR155; with Example 9 @4 μg/ml
  MIC ATB combined with Example 9 @4 μg/ml: 32 µg/mL
ABA UFR155; with Example 10 @8 μg/ml
  MIC ATB combined with Example 10 @8 μg/ml: 64 µg/mL
ABA UFR155; with Example 11 @8 μg/ml
  MIC ATB combined with Example 11 @8 μg/ml: 64 µg/mL
ABA UFR155; with Example 12 @8 μg/ml
  MIC ATB combined with Example 12 @8 μg/ml: 64 µg/mL
ABA UFR155; with Example 15 @4 μg/ml
  MIC ATB combined with Example 15 @4 μg/ml: 32 µg/mL
ABA 107292; [1]
  MIC: 64 µg/mL
ABA 107292; with Example 1 @8 μg/ml
  MIC ATB combined with Example 1 @8 μg/ml: 64 µg/mL
ABA 107292; with Example 3 @8 μg/ml
  MIC ATB combined with Example 3 @8 μg/ml: 8 µg/mL
ABA 107292; with Example 6 @8 μg/ml
  MIC ATB combined with Example 6 @8 μg/ml: 16 µg/mL
ABA 107292; with Example 9 @4 μg/ml
  MIC ATB combined with Example 9 @4 μg/ml: 16 µg/mL
ABA 107292; with Example 10 @8 μg/ml
  MIC ATB combined with Example 10 @8 μg/ml: 16 µg/mL
ABA 107292; with Example 11 @8 μg/ml
  MIC ATB combined with Example 11 @8 μg/ml: 32 µg/mL
ABA 107292; with Example 12 @8 μg/ml
  MIC ATB combined with Example 12 @8 μg/ml: 8 µg/mL
ABA 107292; with Example 15 @4 μg/ml
  MIC ATB combined with Example 15 @4 μg/ml: 32 µg/mL
ABA UFR158; [1]
  MIC: > 128 µg/mL
ABA UFR158; with Example 1 @8 μg/ml
  MIC ATB combined with Example 1 @8 μg/ml: >128 µg/mL
ABA UFR158; with Example 3 @8 μg/ml
  MIC ATB combined with Example 3 @8 μg/ml: >128 µg/mL
ABA UFR158; with Example 6 @8 μg/ml
  MIC ATB combined with Example 6 @8 μg/ml: <0.25 µg/mL
ABA UFR158; with Example 9 @4 μg/ml
  MIC ATB combined with Example 9 @4 μg/ml: >128 µg/mL
ABA UFR158; with Example 10 @8 μg/ml
  MIC ATB combined with Example 10 @8 μg/ml: >128 µg/mL
ABA UFR158; with Example 11 @8 μg/ml
  MIC ATB combined with Example 11 @8 μg/ml: >128 µg/mL
ABA UFR158; with Example 12 @8 μg/ml
  MIC ATB combined with Example 12 @8 μg/ml: >128 µg/mL
ABA UFR158; with Example 15 @4 μg/ml
  MIC ATB combined with Example 15 @4 μg/ml: >128 µg/mL
ABA UFR161; [1]
  MIC: > 128 µg/mL
ABA UFR161; with Example 1 @8 μg/ml
  MIC ATB combined with Example 1 @8 μg/ml: >128 µg/mL
ABA UFR161; with Example 3 @8 μg/ml
  MIC ATB combined with Example 3 @8 μg/ml: >128 µg/mL
ABA UFR161; with Example 6 @8 μg/ml
  MIC ATB combined with Example 6 @8 μg/ml: >128 µg/mL
ABA UFR161; with Example 9 @4 μg/ml
  MIC ATB combined with Example 9 @4 μg/ml: >128 µg/mL
ABA UFR161; with Example 10 @8 μg/ml
  MIC ATB combined with Example 10 @8 μg/ml: >128 µg/mL
ABA UFR161; with Example 11 @8 μg/ml
  MIC ATB combined with Example 11 @8 μg/ml: >128 µg/mL
ABA UFR161; with Example 12 @8 μg/ml
  MIC ATB combined with Example 12 @8 μg/ml: >128 µg/mL
ABA UFR161; with Example 15 @4 μg/ml
  MIC ATB combined with Example 15 @4 μg/ml: >128 µg/mL
ABA UFR151; [1]
  MIC: 2 µg/mL
ABA UFR151; with Example 1 @8 μg/ml
  MIC ATB combined with Example 1 @8 μg/ml: 2 µg/mL
ABA UFR151; with Example 3 @8 μg/ml
  MIC ATB combined with Example 3 @8 μg/ml: 1 µg/mL
ABA UFR151; with Example 6 @8 μg/ml
  MIC ATB combined with Example 6 @8 μg/ml: <0.25 µg/mL
ABA UFR151; with Example 9 @4 μg/ml
  MIC ATB combined with Example 9 @4 μg/ml: 2 µg/mL
ABA UFR151; with Example 10 @8 μg/ml
  MIC ATB combined with Example 10 @8 μg/ml: 2 µg/mL
ABA UFR151; with Example 11 @8 μg/ml
  MIC ATB combined with Example 11 @8 μg/ml: 2 µg/mL
ABA UFR151; with Example 12 @8 μg/ml
  MIC ATB combined with Example 12 @8 μg/ml: 2 µg/mL
ABA UFR151; with Example 15 @4 μg/ml
  MIC ATB combined with Example 15 @4 μg/ml: 2 µg/mL
ABA UFR156; [1]
  MIC: > 128 µg/mL
ABA UFR156; with Example 1 @8 μg/ml
  MIC ATB combined with Example 1 @8 μg/ml: 32 µg/mL
ABA UFR156; with Example 3 @8 μg/ml
  MIC ATB combined with Example 3 @8 μg/ml: 8 µg/mL
ABA UFR156; with Example 6 @8 μg/ml
  MIC ATB combined with Example 6 @8 μg/ml: 8 µg/mL
ABA UFR156; with Example 9 @4 μg/ml
  MIC ATB combined with Example 9 @4 μg/ml: 32 µg/mL
ABA UFR156; with Example 10 @8 μg/ml
  MIC ATB combined with Example 10 @8 μg/ml: 8 µg/mL
ABA UFR156; with Example 11 @8 μg/ml
  MIC ATB combined with Example 11 @8 μg/ml: 32 µg/mL
ABA UFR156; with Example 12 @8 μg/ml
  MIC ATB combined with Example 12 @8 μg/ml: 32 µg/mL
ABA UFR156; with Example 15 @4 μg/ml
  MIC ATB combined with Example 15 @4 μg/ml: 32 µg/mL
ABA UFR160; [1]
  MIC: > 128 µg/mL
ABA UFR160; with Example 1 @8 μg/ml
  MIC ATB combined with Example 1 @8 μg/ml: >128 µg/mL
ABA UFR160; with Example 3 @8 μg/ml
  MIC ATB combined with Example 3 @8 μg/ml: >128 µg/mL
ABA UFR160; with Example 6 @8 μg/ml
  MIC ATB combined with Example 6 @8 μg/ml: <0.25 µg/mL
ABA UFR160; with Example 9 @4 μg/ml
  MIC ATB combined with Example 9 @4 μg/ml: >128 µg/mL
ABA UFR160; with Example 10 @8 μg/ml
  MIC ATB combined with Example 10 @8 μg/ml: >128 µg/mL
ABA UFR160; with Example 11 @8 μg/ml
  MIC ATB combined with Example 11 @8 μg/ml: >128 µg/mL
ABA UFR160; with Example 12 @8 μg/ml
  MIC ATB combined with Example 12 @8 μg/ml: >128 µg/mL
ABA UFR160; with Example 15 @4 μg/ml
  MIC ATB combined with Example 15 @4 μg/ml: >128 µg/mL
